In patent publication US11648248B1 (King Abdulaziz University, priority 2022, dated 2023):
Values after ≈ are worked out from the molar mass of the structure shown. Read-outs that look alike come from different tables or passages of the source.

Tests used:
Format in all cases: cell-based
[1] = test system: Cephalosporin-resistant Streptococcus pneumoniae ATCC-15916; assay: MIC of active MY compounds; details: ATCC15916, read-out: MIC S. pneumoniae ATCC-15916
Source text: (§1) Based upon the initial results obtained, the active compounds were further screened against additional clinical isolates of methicillin-sensitive S. aureus (MSSA), methicillin-resistant S. aureus (MRSA), vancomycin-resistant S. aureus (VRSA), Staphylococcus epidermidis, vancomycin-resistant Enterococcus faecium (VRE), vancomycin-resistant Enterococcus faecalis (VRE) and Streptococcus pneumoniae, as presented in Table 2. Additionally, we examined whether the compounds were bacteriostatic (inhibit bacteria from growing) or bactericidal (kill bacteria) by determining the minimum bactericidal concentration (MBC). The MBC was determined by plating 5 μL from each well where no growth was present (in the MIC plates) onto tryptic soya agar plates and incubating plates at 37° C. for 24 hours. The MBC was categorized as the lowest concentration that generated a 99.9% reduction in bacterial colony-forming units (Table 3).
(§2) The minimum inhibitory concentrations (MICs) of the tested compounds and control drugs; linezolid, vancomycin, gentamicin (antibiotics) and fluconazole and 5-fluorocytosine (5-FC) (antifungal drugs) were determined using the broth microdilution method, according to guidelines outlined by the Clinical and Laboratory Standards Institute (CLSI)^1, 2, 3 against clinically-relevant bacterial (methicillin-resistant Staphylococcus aureus (MRSA), Escherichia coli and Clostridium difficile strains) and fungal (Candida albicans) strain. S. aureus and E. coli were grown aerobically overnight on tryptone soy agar plates at 37° C. C. difficile was grown anaerobically on brain heart infusion supplemented agar at 37° C. for 48 hours. C. albicans was grown aerobically overnight on yeast peptone dextrose (YPD) agar plate at 35° C. Afterwards, a bacterial solution equivalent to 0.5 McFarland standard was prepared and diluted in cation-adjusted Mueller-Hinton broth (CAMHB) (for S. aureus and E. coli) to achieve a bacterial concentration of about 5×10^5 CFU/mL. C. difficile was diluted in brain heart infusion supplemented broth, supplemented with yeast extract, hemin and vitamin K to achieve a bacterial concentration of about 5×10^5 CFU/mL. C. albicans was diluted in Roswell Park Memorial Institute (RPMI 1640) medium with glutamine and without bicarbonate (GIBCO by Life Technologies, Green Island, N.Y., USA) which was buffered to pH 7.0 with 0.165 M of [3-(N-morpholino) propanesulfonic acid] (MOPS) (dot scientific inc., Burton, Mich., USA) to achieve a fungal concentration of about 1.5×10^3 CFU/mL. Compounds and control drugs were added in the first row of the 96-well plates and serially diluted with the corresponding media containing bacteria/fungi. Plates were then, incubated aerobically at 37° C. for 18-20 hours (for S. aureus and E. coli). C. difficile was incubated anaerobically at 37° C. for 48 hours. C. albicans was incubated aerobically at 37° C. for 24 hours.

[2] = test system: Cephalosporin-resistant Streptococcus pneumoniae ATCC-700677; assay: MIC of active MY compounds; details: ATCC700677, read-out: MIC S. pneumoniae ATCC 700677
Source text: as §1, §2

[3] = test system: Methicillin-resistant Staphylococcus aureus (MRSA NRS-119); assay: MIC of active MY compounds; details: read-out: MIC MRSA NRS119
Source text: as §1, §2

[4] = test system: Methicillin-resistant Staphylococcus aureus (MRSA NRS-123, USA400); assay: MIC of active MY compounds; details: read-out: MIC MRSA NRS123 (USA400)
Source text: as §1, §2

[5] = test system: Methicillin-sensitive Staphylococcus aureus (MSSA NRS-107); assay: MIC of active MY compounds; details: read-out: MIC MSSA NRS-107
Source text: as §1, §2

[6] = test system: Methicillin-sensitive Staphylococcus aureus ATCC-6538 (MSSA ATCC-6538); assay: MIC of active MY compounds; details: read-out: MIC MSSA ATCC-6538
Source text: as §1, §2

[7] = test system: Staphylococcus epidermidis (NRS-101); assay: MIC of active MY compounds; details: NRS101, read-out: MIC S. epidermidis NRS 101
Source text: as §1, §2

[8] = test system: Vancomycin-resistant Enterococcus fecalis ATCC-51299 (VRE ATCC-51299); assay: MIC of active MY compounds; details: read-out: MIC VRE ATCC-51299
Source text: as §1, §2

[9] = test system: Cephalosporin-resistant Streptococcus pneumoniae ATCC-15916; assay: MBC by plating from MIC wells
Source text: as §1

[10] = test system: Cephalosporin-resistant Streptococcus pneumoniae ATCC-700677; assay: MBC by plating from MIC wells
Source text: as §1

[11] = test system: Listeria monocytogenes ATCC-19111; assay: MBC by plating from MIC wells
Source text: as §1

[12] = test system: Methicillin-resistant Staphylococcus aureus (MRSA NRS-119); assay: MBC by plating from MIC wells; details: read-out: MBC MRSA NRS119
Source text: as §1

[13] = test system: Methicillin-resistant Staphylococcus aureus (MRSA NRS-123, USA400); assay: MBC by plating from MIC wells; details: read-out: MBC MRSA NRS123 (USA400)
Source text: as §1

[14] = test system: Methicillin-sensitive Staphylococcus aureus (MSSA NRS-107); assay: MBC by plating from MIC wells; details: read-out: MBC MSSA NRS-107
Source text: as §1

[15] = test system: Staphylococcus epidermidis (NRS-101); assay: MBC by plating from MIC wells
Source text: as §1

[16] = test system: Vancomycin-resistant Enterococcus faecium ATCC-700221 (VRE ATCC-700221); assay: MBC by plating from MIC wells; details: read-out: MBC VRE ATCC-700221
Source text: as §1

[17] = test system: Vancomycin-resistant Enterococcus fecalis ATCC-51299 (VRE ATCC-51299); assay: MBC by plating from MIC wells; details: read-out: MBC VRE ATCC-51299
Source text: as §1

[18] = test system: Vancomycin-resistant Staphylococcus aureus (VRSA10); assay: MBC by plating from MIC wells; details: read-out: MBC VRSA10
Source text: as §1

[19] = test system: Vancomycin-resistant Staphylococcus aureus (VRSA12); assay: MBC by plating from MIC wells; details: read-out: MBC VRSA12
Source text: as §1

[20] = ATCC15916, 99.9% reduction in CFU, read-out: MBC S. pneumoniae ATCC-15916
[21] = ATCC700677, 99.9% reduction in CFU, read-out: MBC S. pneumoniae ATCC 700677
[22] = ATCC19111, 99.9% reduction in CFU, read-out: MBC L. monocytogenes ATCC-19111
[23] = NRS101, 99.9% reduction in CFU, read-out: MBC S. epidermidis NRS 101

| Structure (SMILES) | MIC [1] | MIC [2] | MIC [3] | MIC [4] | MIC [5] | MIC [6] | MIC [7] | MIC [8] | MBC [9, 20] | MBC [10, 21] | MBC [11, 22] | MBC ([12]; 99.9% reduction in CFU) | MBC ([13]; 99.9% reduction in CFU) | MBC ([14]; 99.9% reduction in CFU) | MBC [15, 23] | MBC ([16]; 99.9% reduction in CFU) | MBC ([17]; 99.9% reduction in CFU) | MBC ([18]; 99.9% reduction in CFU) | MBC ([19]; 99.9% reduction in CFU) | further results |
| --- | --- | --- | --- | --- | --- | --- | --- | --- | --- | --- | --- | --- | --- | --- | --- | --- | --- | --- | --- | --- |
| CC(=O)NC[C@H]1CN(c2ccc(N3CCOCC3)c(F)c2)C(=O)O1 [Linezolid, reference compound] | 1 µg/mL | 1 µg/mL | 64 µg/mL | 1 µg/mL | 1 µg/mL | 0.5 µg/mL | 0.5 µg/mL | 1 µg/mL | 32 µg/mL (≈ 94.9 µM) | 16 µg/mL (≈ 47.4 µM) | 32 µg/mL (≈ 94.9 µM) | > 64 µg/mL | 64 µg/mL (≈ 190 µM) | 16 µg/mL (≈ 47.4 µM) | 8 µg/mL (≈ 23.7 µM) | 16 µg/mL (≈ 47.4 µM) | 16 µg/mL (≈ 47.4 µM) | > 64 µg/mL | 16 µg/mL (≈ 47.4 µM) | – |
| O=C(Nc1cccc(Nc2ccc(Cl)nn2)c1)Nc1ccc(Cl)c(Cl)c1 [MY14, 1-(3-((6-chloropyridazin-3-yl)amino)phenyl)-3-(3,4-dichlorophenyl)urea] | 4 µg/mL | 4 µg/mL | 4 µg/mL | 4 µg/mL | 4 µg/mL | 2 µg/mL | 8 µg/mL | 64 µg/mL | 64 µg/mL (≈ 157 µM) | > 64 µg/mL | > 64 µg/mL | 8 µg/mL (≈ 19.6 µM) | 8 µg/mL (≈ 19.6 µM) | 8 µg/mL (≈ 19.6 µM) | 64 µg/mL (≈ 157 µM) | > 64 µg/mL | > 64 µg/mL | 8 µg/mL (≈ 19.6 µM) | 32 µg/mL (≈ 78.3 µM) | – |
| O=C(Nc1ccc(-c2ccc(=O)[nH]n2)cc1)Nc1ccc(Cl)c(Cl)c1 [MY21, 1-(3,4-dichlorophenyl)-3-(4-(6-oxo-1,6-dihydropyridazin-3-yl)phenyl)urea] | 2 µg/mL | 2 µg/mL | 1 µg/mL | 1 µg/mL | 1 µg/mL | 1 µg/mL | 1 µg/mL | 4 µg/mL | 4 µg/mL (≈ 10.7 µM) | 4 µg/mL (≈ 10.7 µM) | 0.5 µg/mL (≈ 1.33 µM) | 1 µg/mL (≈ 2.67 µM) | 8 µg/mL (≈ 21.3 µM) | 4 µg/mL (≈ 10.7 µM) | 4 µg/mL (≈ 10.7 µM) | 4 µg/mL (≈ 10.7 µM) | 16 µg/mL (≈ 42.6 µM) | 2 µg/mL (≈ 5.33 µM) | 8 µg/mL (≈ 21.3 µM) | – |
| O=C(Nc1ccc(Oc2ccc(=O)[nH]n2)cc1)Nc1ccc(Cl)c(Cl)c1 [MY24, 1-(3,4-dichlorophenyl)-3-(4-((6-oxo-1,6-dihydropyridazin-3-yl)oxy)phenyl)urea] | 2 µg/mL | 2 µg/mL | 1 µg/mL | 1 µg/mL | 1 µg/mL | 1 µg/mL | 1 µg/mL | 4 µg/mL | 64 µg/mL (≈ 164 µM) | > 64 µg/mL | 64 µg/mL (≈ 164 µM) | 32 µg/mL (≈ 81.8 µM) | > 64 µg/mL | 16 µg/mL (≈ 40.9 µM) | 8 µg/mL (≈ 20.4 µM) | 16 µg/mL (≈ 40.9 µM) | > 64 µg/mL | > 64 µg/mL | > 64 µg/mL | – |
| O=C(Nc1ccc(Oc2ccc(=O)[nH]n2)cc1)Nc1ccc(Cl)c(C(F)(F)F)c1 [MY31, 1-(4-chloro-3-(trifluoromethyl)phenyl)-3-(4-((6-oxo-1,6-dihydropyridazin-3-yl)oxy)phenyl)urea] | 0.5 µg/mL | 0.5 µg/mL | 0.5 µg/mL | 0.5 µg/mL | 0.5 µg/mL | 0.5 µg/mL | 0.5 µg/mL | 2 µg/mL | 4 µg/mL (≈ 9.42 µM) | 2 µg/mL (≈ 4.71 µM) | > 64 µg/mL | 2 µg/mL (≈ 4.71 µM) | > 64 µg/mL | 2 µg/mL (≈ 4.71 µM) | 1 µg/mL (≈ 2.35 µM) | 4 µg/mL (≈ 9.42 µM) | > 64 µg/mL | > 64 µg/mL | > 64 µg/mL | – |
| CNC(=O)c1cc(Oc2ccc(NC(=O)Nc3ccc(Cl)c(C(F)(F)F)c3)cc2)ccn1 [Sorafenib, reference compound] | 4 µg/mL | 4 µg/mL | 2 µg/mL | 4 µg/mL | 8 µg/mL | 4 µg/mL | 8 µg/mL | > 64 µg/mL | > 64 µg/mL | > 64 µg/mL | > 64 µg/mL | > 64 µg/mL | > 64 µg/mL | > 64 µg/mL | > 64 µg/mL | > 64 µg/mL | > 64 µg/mL | > 64 µg/mL | > 64 µg/mL | – |
| CN[C@H](CC(C)C)C(=O)N[C@H]1C(=O)N[C@@H](CC(N)=O)C(=O)N[C@H]2C(=O)N[C@H]3C(=O)N[C@H](C(=O)N[C@H](C(=O)O)c4cc(O)cc(O)c4-c4cc3ccc4O)[C@H](O)c3ccc(c(Cl)c3)Oc3cc2cc(c3O[C@@H]2O[C@H](CO)[C@@H](O)[C@H](O)[C@H]2O[C@H]2C[C@](C)(N)[C@H](O)[C@H](C)O2)Oc2ccc(cc2Cl)[C@H]1O [Vancomycin, reference compound] | 1 µg/mL | 1 µg/mL | 1 µg/mL | 1 µg/mL | 2 µg/mL | 1 µg/mL | 2 µg/mL | 32 µg/mL | – | – | – | – | – | – | – | – | – | – | – | MBC ([9]; ATCC15916, read-out: MBC S. pneumoniae ATCC-15916): 1 µg/mL (≈ 0.69 µM); MBC ([10]; ATCC700677, read-out: MBC S. pneumoniae ATCC 700677): 2 µg/mL (≈ 1.38 µM); MBC ([11]; ATCC19111, read-out: MBC L. monocytogenes ATCC-19111): 2 µg/mL (≈ 1.38 µM); MBC [12]: 1 µg/mL (≈ 0.69 µM); MBC [13]: 2 µg/mL (≈ 1.38 µM); MBC [14]: 2 µg/mL (≈ 1.38 µM); MBC ([15]; NRS101, read-out: MBC S. epidermidis NRS 101): 2 µg/mL (≈ 1.38 µM); MBC [16]: > 64 µg/mL; MBC [17]: 64 µg/mL (≈ 44.2 µM); MBC [18]: > 64 µg/mL; MBC [19]: > 64 µg/mL |
